According to patent US9833431B2, “Pharmaceutical combinations for the treatment of cancer” (Pitney Pharmaceuticals Pty Limited, priority 2013, dated 2017):
Where “and” joins values, the source holds several entries; their conditions need not be identical. Equal values may be shown once. Entries after “also recorded” stand apart in the source; their conditions may differ.

Experiments:
HT-29 = assay: cells; format: cell-based
Procedure: (§1) All cell lines described herein were purchased from ATCC. […] Control cultures were treated with ethanol alone.

[1] = system: HUVEC, human fetal astrocytes and HOSE cells; assay: SRB cytotoxicity assay, summary over early/primary passage cells; format: cell-based; details: summary of Table 3, read-out: IC50 proliferation
Procedure: as §1

[2] = system: immortalized cell lines and the CFPAC-1 and SKOV-3 cell lines; assay: SRB cytotoxicity assay, summary over immortalized lines; format: cell-based; details: all immortalized cell lines and CFPAC-1 and SKOV-3; summary of Table 3; read-out: IC50 proliferation
Procedure: as §1

SW-872 (Liposarcoma) = assay: SRB cytotoxicity assay, SW-872 cells; format: cell-based; details: Homo sapiens, SW872
Procedure: as §1

DU-145 = assay: SRB cytotoxicity assay, DU-145 cells; format: cell-based; details: Homo sapiens, DU-145, malignant, prostatic, 72 h
Procedure: as §1

LN-18 = assay: SRB cytotoxicity assay, LN-18 cells; format: cell-based, human; details: 72 h
Procedure: as §1

HT-29 5m11 = assay: SRB cytotoxicity assay, HT-29 5m11 cells; format: cell-based; details: Homo sapiens, read-out: LC50 (the source's name)
Procedure: as §1

AsPC1 = assay: SRB cytotoxicity assay, AsPC1 cells; format: cell-based, human; details: 72 h
Procedure: as §1

[3] = dosage of 1000 mg of MPL per kg of body weight per 24 hours; mammals; cited from earlier work
HEK = assay: SRB cytotoxicity assay, HEK cells; format: cell-based; details: Homo sapiens, HEK293, immortalised, nephritic, 72 h
Procedure: as §1

HT-1080 (Fibrosarcoma) = assay: SRB cytotoxicity assay, HT-1080 cells; format: cell-based
Procedure: as §1

A2780 = assay: SRB cytotoxicity / proliferation assay, A2780 cells; details: for Mpl Alone, Mpl (x/X) Inhibition: A2780 Ovarian, 72 h, x=events, X=experiments
Procedure: (§2) Cells were seeded in 96-well plates (2,000-3,000 cells/well) and culture overnight prior to treatment with MPL. Control cultures were treated with ethanol alone.
(§3) Cells were seeded in 96-well plates (2,000-3,000 cells/well), treated with the indicated compound(s) for 72 h, fixed, washed and stained with 100 μl of 0.4% (w/v) SRB dissolved in 1% acetic acid. Unbound dye was removed by five washes with 1% acetic acid before air-drying.
Cell viability was conducted according to standard Trypan Blue method. Cell proliferation was assessed using the sulforhodamine B (SRB) assay. For viability experiments, cells were seeded in 6 well plates, whereas for proliferation assays cells were grown in 96 well plates. Following over-night attachment, cells were treated with the intended drug at various concentrations either alone or in combination with monepantel (MPL) for 72 h. Parallel to this, cells treated with MPL alone were also deployed for comparative purposes. Following incubation for 72 h in a standard cell culture incubator, effect of mono and combined drug treatments on cell viability and/or cell proliferation was assessed through using Trypan Blue or SRB assays respectively.
For viability assay, at the end of treatment period, cells were washed with PBS, trypsinized and counted using Trypan blue and hemocytometer. For the SRB assay cells were fixed, washed and stained with 100 μl of 0.4% (w/v) SRB dissolved in 1% acetic acid. Unbound dye was removed by five washes with 1% acetic acid before air drying. […] Monepantel (gift by Novartis, Basel, Switzerland) was dissolved in 100% ethanol and then diluted with the cell culture media.

REN = assay: SRB cytotoxicity assay, REN cells; format: cell-based, human; details: 72 h
Procedure: as §1

SKOV-3 = assay: SRB cytotoxicity assay, SKOV-3 cells; format: cell-based; details: Homo sapiens, SK-OV-3, SKOV-3, malignant, ovarian, 72 h
Procedure: as §1

U87 = assay: SRB cytotoxicity assay, U87 cells; format: cell-based, human; details: 72 h
Procedure: as §1

PET = assay: SRB cytotoxicity assay, PET cells; format: cell-based, human; details: 72 h
Procedure: as §1

LNCaP = assay: SRB cytotoxicity assay, LNCaP cells; format: cell-based, human; details: 72 h
Procedure: as §1

28 malignant cell lines = assay: SRB cytotoxicity assay, summary over malignant cell lines; format: cell-based; details: all 28 malignant cell lines tested, with the exception of CFPAC-1 and SKOV-3; summary of Table 3; read-out: IC50 proliferation
Procedure: as §1

1A9 = assay: SRB cytotoxicity assay, 1A9 cells; format: cell-based; details: Homo sapiens, 1A9, malignant, ovarian, 72 h
Procedure: as §1

MCF-7 = assay: SRB cytotoxicity assay, MCF-7 cells; format: cell-based; details: Homo sapiens, MCF7, 72 h, MCF-7, malignant, breast
Procedure: as §1

Human Fetal Astrocytes = assay: SRB cytotoxicity assay, human fetal astrocytes; format: cell-based; details: Astrocyte, non-malignant, glial, 72 h
Procedure: as §1

HUVEC = assay: SRB cytotoxicity assay, HUVEC; format: cell-based; details: Homo sapiens, non-malignant, endothelial, 72 h
Procedure: as §1

T47-D = assay: SRB cytotoxicity assay, T47-D cells; format: cell-based; details: Homo sapiens, T47D, malignant, breast, 72 h
Procedure: as §1

Hep3B = assay: SRB cytotoxicity assay, Hep3B cells; format: cell-based, human; details: for cytotoxic effect of MPL alone: Hep3B cells
Procedure: as §1

CFPAC-1 = assay: SRB cytotoxicity assay, CFPAC-1 cells
Procedure: as §2
Cytotoxicity was assessed using the sulforhodamine B (SRB) assay and reported as half maximal inhibitory concentration (IC50; Table 3). Cells were seeded in 96-well plates (2,000-3,000 cells/well), treated with the indicated compound(s) for 72 h, fixed, washed and stained with 100 μl of 0.4% (w/v) SRB dissolved in 1% acetic acid. Unbound dye was removed by five washes with 1% acetic acid before air-drying.
(§4) MPL (5 μM) and combination drugs were applied for 72 h unless indicated.

U251 = assay: SRB cytotoxicity assay, U251 cells; format: cell-based; details: Homo sapiens, U-251, U251, malignant, glial, 72 h
Procedure: as §1

HOSE = assay: SRB cytotoxicity assay, HOSE non-malignant control cells; details: for Mpl Alone, Mpl (x/X) Inhibition: 5 μM MPL, x=events, X=experiments; for cytotoxicity of MPL alone: HOSE control cells, Table 6 footnote 3
Procedure: All cell lines described herein were purchased from ATCC. Cells were seeded in 96-well plates (2,000-3,000 cells/well) and culture overnight prior to treatment with MPL. Control cultures were treated with ethanol alone.
as §3
Corresponding cytotoxicity of the major metabolite MPL-SO2 has also been tested where indicated. […] HUVEC, human fetal astrocytes and HOSE cells are non-transformed, non-immortalized and non-malignant, freshly isolated/low passage number cell populations, from apparently healthy non-diseased tissue. These healthy cell populations were included in the experimental series as controls for non-specific toxicity. Both MPL and MPL-SO2 were suspended in ethanol and applied in final concentrations of 0.5 to 1% ethanol in the respective culture media.
In order to evaluate the effect of MPL on the in vitro efficacy of an established drug was evaluated using cell viability and cell proliferation assays. Cell viability was conducted according to standard Trypan Blue method. Cell proliferation was assessed using the sulforhodamine B (SRB) assay. For viability experiments, cells were seeded in 6 well plates, whereas for proliferation assays cells were grown in 96 well plates. Following over-night attachment, cells were treated with the intended drug at various concentrations either alone or in combination with monepantel (MPL) for 72 h. Parallel to this, cells treated with MPL alone were also deployed for comparative purposes. Following incubation for 72 h in a standard cell culture incubator, effect of mono and combined drug treatments on cell viability and/or cell proliferation was assessed through using Trypan Blue or SRB assays respectively.
For viability assay, at the end of treatment period, cells were washed with PBS, trypsinized and counted using Trypan blue and hemocytometer. For the SRB assay cells were fixed, washed and stained with 100 μl of 0.4% (w/v) SRB dissolved in 1% acetic acid. Unbound dye was removed by five washes with 1% acetic acid before air drying. […] Monepantel (gift by Novartis, Basel, Switzerland) was dissolved in 100% ethanol and then diluted with the cell culture media. Other agents employed in the study were purchased either from Sigma Australia or Sapphire Australia, prepared and preserved for cell culture use according to supplier instructions.
as §4

PC-3 = assay: SRB cytotoxicity assay, PC-3 cells; format: cell-based; details: Homo sapiens, PC-3, malignant, prostatic, 72 h
Procedure: as §1

MDA-MB-231 = assay: SRB cytotoxicity assay, MDA-MB-231 cells; format: cell-based; details: MDA-MB-231, malignant, breast
Procedure: as §1

IGROV-1 = assay: SRB cytotoxicity assay, IGROV-1 cells; format: cell-based; details: Homo sapiens, IGROV-1, malignant, ovarian, 72 h
Procedure: as §1

## C[C@](C#N)(COc1cc(C#N)ccc1C(F)(F)F)NC(=O)c1ccc(SC(F)(F)F)cc1 [MPL, N-[(1S)-1-cyano-2-(5-cyano-2-trifluoromethyl-phenoxy)-1-methyl-ethyl]-4-trifluoromethylsulfanyl-benzamide]
HT-29; HT29 cells, MPL (5 μM), two experiments
  significant cytotoxic effect of MPL alone: no significant cytotoxic effect
HT-29; Homo sapiens, HT-29, HT29 cells, read-out: LC50 (the source's name)
  CC50: 5.9 µM
HT-29; Homo sapiens, HT-29, malignant, colorectal, SRB, 72 h
  IC50: 5.9 ± 0.2 µM
[1]
  IC50: > 85 µM
[2]
  IC50: 12 to 35 µM
SW-872 (Liposarcoma); SW-872 (Liposarcoma), malignant, mesenchymal, SRB, 72 h
  IC50: 14.7 µM
SW-872 (Liposarcoma); SW-872 cells
  EC50: 14.7 µM
DU-145
  IC50: 23 µM
LN-18; Homo sapiens, LN-18, malignant, glial, SRB
  IC50: 9.4 ± 0.8 µM
LN-18; LN18 Glioblastoma, 5 μM MPL, x=number of events, X=number of experiments
  Mpl Alone, Mpl (x/X) Inhibition: 2/2
HT-29 5m11
  CC50: 10.4 µM
AsPC1; AsPC-1 Pancreatoma, 5 μM MPL, x=events, X=experiments
  Mpl Alone, Mpl (x/X) Inhibition: 1/2
AsPC1; Homo sapiens, AsPC1, malignant, pancreatic, SRB
  IC50: 7.2 ± 0.3 µM
[3]
  clinical tolerance: well tolerated
HEK
  IC50: 34.6 ± 0.9 µM
HT-1080 (Fibrosarcoma); HT180 Fibrosarcoma, 5 or 10 μM MPL, 72 h, x=events, X=experiments
  Mpl Alone, Mpl (x/X) Inhibition: (1/1)
HT-1080 (Fibrosarcoma); Homo sapiens, HT-1080 (Fibrosarcoma), malignant, mesenchymal, SRB, 72 h
  IC50: 17.2 µM
HT-1080 (Fibrosarcoma); Homo sapiens, HT-1080 cells
  EC50: 17.2 µM
A2780; 5 μM MPL, Table 6
  Mpl Alone, Mpl (x/X) Inhibition: 6/6^2
A2780; 5 μM MPL, Table 7
  Mpl Alone, Mpl (x/X) Inhibition: (4/4)
A2780; 5 or 10 μM MPL, Table 8 lower panel
  Mpl Alone, Mpl (x/X) Inhibition: (5/5)^
A2780; 5 or 10 μM MPL, Table 8 upper panel
  Mpl Alone, Mpl (x/X) Inhibition: (3/3)
A2780; Homo sapiens, A2780, 72 h
  IC50: 10 ± 3.8 µM
REN; Homo sapiens, REN, malignant, mesothelial, SRB
  IC50: 2.5 ± 0.2 µM
REN; REN Mesothelioma, 5 μM MPL, x=events, X=experiments
  Mpl Alone, Mpl (x/X) Inhibition: 2/2
SKOV-3
  IC50: 31.2 ± 0.8 µM
U87; Homo sapiens, U-87 MG, U87, malignant, glial, SRB
  IC50: 18 ± 7.1 µM
U87; U87 Glioblastoma, 5 μM MPL, x=events, X=experiments
  Mpl Alone, Mpl (x/X) Inhibition: 1/1
PET; Homo sapiens, PET, malignant, mesothelial, SRB
  IC50: 26 µM
PET; PET Mesothelioma, 5 μM MPL, x=events, X=experiments
  Mpl Alone, Mpl (x/X) Inhibition: 2/2
LNCaP; Homo sapiens, LNCaP, malignant, prostatic, SRB
  IC50: 7.3 µM
LNCaP; LNCAP Prostate, 5 μM MPL, x=events, X=experiments
  Mpl Alone, Mpl (x/X) Inhibition: 1/1
28 malignant cell lines
  IC50: 2 to 25 µM
1A9
  IC50: 2.5 ± 0.5 µM
MCF-7
  IC50: 15.5 µM
Human Fetal Astrocytes
  IC50: 85.6 ± 2.7 µM
HUVEC
  IC50: 87 µM
T47-D
  IC50: 5.3 µM
Hep3B; Hep3B Hepatoma, 5 μM MPL, 48 h, x=events, X=experiments
  Mpl Alone, Mpl (x/X) Inhibition: 12/12
Hep3B; MPL 2.5 μM, 48 h
  cytotoxic effect of MPL alone: does not display a cytotoxic effect; also recorded: does not exert a cytotoxic effect
Hep3B; MPL 5 μM, 48 h
  cytotoxic effect of MPL alone: significant cytotoxic effect and potent effect and 12 of 12
Hep3B; Homo sapiens, Hep3B, malignant, hepatic, SRB, 72 h
  IC50: 15.8 µM
CFPAC-1; CFPAC-1 Pancreatoma, 5 μM MPL, 72 h, x=events, X=experiments
  Mpl Alone, Mpl (x/X) Inhibition: 1/10
CFPAC-1; CFPAC-1 cells, MPL (5 μM)
  experiments with significant cytotoxic effect of MPL alone: 1 of 10
CFPAC-1; CFPAC-1 cells, MPL (10 μM), 72 h, data not shown
  experiments with cytotoxic effect of MPL alone: 4 of 9
CFPAC-1; Homo sapiens, CFPAC-1, 72 h
  IC50: 30.1 ± 5.5 µM
U251
  IC50: 17 ± 1.2 µM
HOSE; HOSE (Ovarian) control, Table 6
  Mpl Alone, Mpl (x/X) Inhibition: 2/9^3
HOSE; HOSE (Ovarian), 72 h, Table 7
  Mpl Alone, Mpl (x/X) Inhibition: (0/4)
HOSE; HOSE cells, FIG. 22 Rows 2 (fluorouracil) and 5 (paclitaxel)
  cytotoxic effect of MPL alone: small but significant cytotoxic effect
HOSE; HOSE cells, MPL 2.5 μM, 1/1 experiments
  significant cytotoxic effect of MPL alone: did not induce a significant cytotoxic effect
HOSE; HOSE cells, MPL 5 μM, 3/3 experiments
  significant cytotoxic effect of MPL alone: did not induce a significant cytotoxic effect
HOSE; flutamide experiment
  cytotoxicity of MPL alone: 3%
HOSE; oxaliplatin experiment
  cytotoxicity of MPL alone: 5%
HOSE; Homo sapiens, 72 h
  IC50: > 100 µM
PC-3
  IC50: 21 µM
MDA-MB-231; Homo sapiens, MDA-MB-231, 72 h
  IC50: 23.8 µM
MDA-MB-231; 72 h
  IC50: 25.8 ± 0.2 µM
IGROV-1
  IC50: 4.4 ± 0.3 µM
